Reference: patent publication US8735584B2 (Merck Patent GmbH, priority 2008, dated 2014)

Experiments:
Format in all cases: biochemical
ABL = target: T1, ABL (Homo sapiens, UniProt P00519); experiment: Desktop Profiler kinase panel, ABL; details: 10 micromolar concentration of the compound; read-out: Percent Inhibition ABL
T1 construct: purchased Caliper Life Sciences
Outline: (§1)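 Single-concentration percent inhibition by microfluidic mobility shift: substrate-to-product peak ratio of fluorescently labelled peptide. Kinase plates preloaded; compound added before substrate/ATP mix, reaction 90 mins at 25 C, EDTA stop. Controls: no inhibitor, no ATP.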

PRAK = target: T2, PRAK (Homo sapiens, UniProt Q8IW41); experiment: Desktop Profiler kinase panel, PRAK; details: 10 micromolar concentration of the compound; read-out: Percent Inhibition PRAK
T2 construct: purchased Caliper Life Sciences
T2 sequence (Q8IW41 1-473): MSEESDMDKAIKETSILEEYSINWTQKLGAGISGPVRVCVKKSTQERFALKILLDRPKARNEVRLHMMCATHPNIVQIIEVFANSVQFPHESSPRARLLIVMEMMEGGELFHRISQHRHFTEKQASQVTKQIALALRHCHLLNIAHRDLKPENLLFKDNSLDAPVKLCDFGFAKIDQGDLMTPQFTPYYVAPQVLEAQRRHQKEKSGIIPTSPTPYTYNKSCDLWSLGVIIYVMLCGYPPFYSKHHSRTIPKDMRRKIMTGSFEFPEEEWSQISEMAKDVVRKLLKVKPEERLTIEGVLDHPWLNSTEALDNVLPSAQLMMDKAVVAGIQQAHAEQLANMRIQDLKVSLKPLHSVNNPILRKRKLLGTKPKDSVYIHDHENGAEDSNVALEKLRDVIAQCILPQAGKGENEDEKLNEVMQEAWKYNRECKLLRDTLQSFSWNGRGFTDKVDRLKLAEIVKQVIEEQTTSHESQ
Protocol: (§2) The Aurora assays described here are performed on two Caliper Life Sciences systems: the LC3000 and the Desktop Profiler. These provide data on enzyme activity via measurement of the relative amounts of phosphorylated or unphosphorylated fluorescently labelled substrate peptide at the end of an enzymatic reaction. These different states of peptide are resolved by applying a potential difference across the sample. The presence of the charged phosphate group on the product (as opposed to the substrate) causes a different peptide mobility between the two peptides. This is visualized by excitation of the fluorescent label on the substrate and product peptides and represented as peaks within the analysis software.
(§3) The Desktop Profiler utilizes the same principle as the LC3000 for calculating percentage conversion of a substrate to product. Caliper Life Sciences provides proprietary flash frozen pre-made 384 well plates containing selected kinases. Each column in the 384 well plate contains a particular selected kinase. A second plate, the ‘substrate plate’ contains a mix of fluorescently labeled peptide substrate and ATP. These are arranged in columns so that transfer for substrate plate to enzyme plate provides the correct enzyme with the correct substrate/ATP concentration. Compounds are added to a thawed enzyme plate in the desired format, in single concentrations. Reactions are initiated by transfer of the substrate/ATP mix from the substrate plate. The enzyme plate is incubated for 90 mins at 25 C. The reaction is stopped by addition of 70 ul of Stop Buffer (100 mM HEPES pH 7.5, 0.015% Brij-35, 10 mM EDTA (Sigma, E7889)).
Reading of the plate in the Profiler is identical to the LC3000, and the ratio between substrate and product peaks provides the activity of the enzyme in that well. This is best represented by a plate heat map which colors each well by percent inhibition as compared to positive and negative controls (no inhibitors and no ATP respectively). […]

GSK3b = target: T3, GSK3b (Homo sapiens, UniProt P49841); experiment: Desktop Profiler kinase panel, GSK3b; details: 10 micromolar concentration of the compound; read-out: Percent Inhibition GSK3b
T3 construct: purchased Caliper Life Sciences
Protocol: as §2, §3
(§4) Reading of the plate in the Profiler is identical to the LC3000, and the ratio between substrate and product peaks provides the activity of the enzyme in that well. This is best represented by a plate heat map which colors each well by percent inhibition as compared to positive and negative controls (no inhibitors and no ATP respectively).
(§5) In the following Tables 3a-4-b, which show the results of the desktop profiler measurements, “+” means 50-70% inhibition, “++” means 70-90% inhibition, and “+++” means >90% inhibition. The enzymes tested for profiling were ABL, AKT1, AKT2, AurA, CHK1, CHK2, CK1d, Erk1, Erk2, FYN, GSK3b, INSR, LCK, LYN, MAPKAPK2, MET, MSK1, p38a, PKA, PKCz, PKD2, PRAK, RSK1 and SRC.

AKT2 = target: T4, AKT2 (Homo sapiens, UniProt P31751); experiment: Desktop Profiler kinase panel, AKT2; details: 10 micromolar concentration of the compound; read-out: Percent Inhibition AKT2
T4 construct: purchased Caliper Life Sciences
Protocol: as §2, §3, §4, §5

LYN = target: T5, LYN (Homo sapiens, UniProt P07948); experiment: Desktop Profiler kinase panel, LYN; details: 10 micromolar concentration of the compound; read-out: Percent Inhibition LYN
T5 construct: purchased Caliper Life Sciences
Outline: as §1

CHK2 = target: T6, CHK2 (Homo sapiens, UniProt O96017); experiment: Desktop Profiler kinase panel, CHK2; details: 10 micromolar concentration of the compound; read-out: Percent Inhibition CHK2
T6 construct: purchased Caliper Life Sciences
Outline: as §1

SRC = target: T7, SRC (Homo sapiens, UniProt P12931); experiment: Desktop Profiler kinase panel, SRC; details: 10 micromolar concentration of the compound; read-out: Percent Inhibition SRC
T7 construct: purchased Caliper Life Sciences
Outline: as §1

PKA = target: T8, PKA (Homo sapiens, UniProt P17612); experiment: Desktop Profiler kinase panel, PKA; details: 10 micromolar concentration of the compound; read-out: Percent Inhibition PKA
T8 construct: purchased Caliper Life Sciences
Protocol: as §2, §3, §4, §5

CK1d = target: T9, CK1d (Homo sapiens, UniProt P48730); experiment: Desktop Profiler kinase panel, CK1d; details: 10 micromolar concentration of the compound; read-out: Percent Inhibition CK1d
T9 construct: purchased Caliper Life Sciences
Protocol: as §2, §3, §4, §5

T9 sequence (P48730 whole entry): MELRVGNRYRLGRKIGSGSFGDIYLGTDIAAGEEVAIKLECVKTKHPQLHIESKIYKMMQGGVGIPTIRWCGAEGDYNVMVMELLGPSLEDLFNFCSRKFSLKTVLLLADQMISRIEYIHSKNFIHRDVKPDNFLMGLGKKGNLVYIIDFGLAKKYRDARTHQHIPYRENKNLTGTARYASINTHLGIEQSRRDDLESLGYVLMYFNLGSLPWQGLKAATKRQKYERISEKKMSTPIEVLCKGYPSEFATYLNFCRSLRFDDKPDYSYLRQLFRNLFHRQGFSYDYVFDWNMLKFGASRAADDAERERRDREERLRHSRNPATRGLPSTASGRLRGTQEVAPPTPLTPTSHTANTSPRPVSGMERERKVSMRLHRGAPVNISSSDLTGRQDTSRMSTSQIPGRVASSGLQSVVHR
T4 sequence (P31751 whole entry, species assumed): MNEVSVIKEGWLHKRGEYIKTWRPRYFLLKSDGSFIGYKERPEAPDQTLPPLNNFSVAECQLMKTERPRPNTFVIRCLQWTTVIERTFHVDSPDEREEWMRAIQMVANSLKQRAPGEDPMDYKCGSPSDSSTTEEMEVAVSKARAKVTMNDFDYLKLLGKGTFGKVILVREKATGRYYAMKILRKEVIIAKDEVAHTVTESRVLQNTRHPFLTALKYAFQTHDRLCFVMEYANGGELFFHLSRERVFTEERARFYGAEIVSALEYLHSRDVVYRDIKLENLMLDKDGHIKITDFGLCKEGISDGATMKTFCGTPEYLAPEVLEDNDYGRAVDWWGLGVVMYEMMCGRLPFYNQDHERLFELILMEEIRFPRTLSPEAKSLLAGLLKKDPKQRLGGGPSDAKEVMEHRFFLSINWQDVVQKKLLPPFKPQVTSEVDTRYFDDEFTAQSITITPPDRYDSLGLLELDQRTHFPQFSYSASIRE
T5 sequence (P07948 whole entry, species assumed): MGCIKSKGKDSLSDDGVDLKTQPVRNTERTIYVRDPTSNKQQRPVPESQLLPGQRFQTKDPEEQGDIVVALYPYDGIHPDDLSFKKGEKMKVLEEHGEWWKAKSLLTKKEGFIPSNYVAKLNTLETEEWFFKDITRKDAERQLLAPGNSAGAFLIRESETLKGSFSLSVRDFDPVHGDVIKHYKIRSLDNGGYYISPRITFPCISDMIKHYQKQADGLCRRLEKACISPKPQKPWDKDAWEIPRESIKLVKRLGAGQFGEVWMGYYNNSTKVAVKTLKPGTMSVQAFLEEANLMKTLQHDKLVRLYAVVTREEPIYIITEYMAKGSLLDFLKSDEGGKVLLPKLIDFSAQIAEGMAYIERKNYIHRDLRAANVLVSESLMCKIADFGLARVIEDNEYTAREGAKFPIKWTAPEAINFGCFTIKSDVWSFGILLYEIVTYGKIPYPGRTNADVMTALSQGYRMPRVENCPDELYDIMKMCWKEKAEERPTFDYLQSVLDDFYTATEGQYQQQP
T7 sequence (P12931 whole entry, species assumed): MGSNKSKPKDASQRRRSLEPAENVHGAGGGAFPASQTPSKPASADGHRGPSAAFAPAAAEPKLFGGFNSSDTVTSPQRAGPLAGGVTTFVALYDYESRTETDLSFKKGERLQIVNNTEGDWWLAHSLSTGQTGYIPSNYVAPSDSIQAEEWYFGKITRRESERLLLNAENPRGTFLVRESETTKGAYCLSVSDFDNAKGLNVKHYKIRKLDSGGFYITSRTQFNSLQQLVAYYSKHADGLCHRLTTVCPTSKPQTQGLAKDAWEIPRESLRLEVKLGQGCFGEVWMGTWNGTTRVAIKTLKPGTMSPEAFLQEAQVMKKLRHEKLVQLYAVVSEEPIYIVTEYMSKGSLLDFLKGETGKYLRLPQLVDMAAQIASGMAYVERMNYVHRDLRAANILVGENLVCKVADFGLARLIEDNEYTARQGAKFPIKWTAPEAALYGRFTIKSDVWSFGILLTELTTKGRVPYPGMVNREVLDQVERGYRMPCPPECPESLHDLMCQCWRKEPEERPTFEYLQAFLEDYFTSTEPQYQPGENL
T3 sequence (P49841 whole entry, species assumed): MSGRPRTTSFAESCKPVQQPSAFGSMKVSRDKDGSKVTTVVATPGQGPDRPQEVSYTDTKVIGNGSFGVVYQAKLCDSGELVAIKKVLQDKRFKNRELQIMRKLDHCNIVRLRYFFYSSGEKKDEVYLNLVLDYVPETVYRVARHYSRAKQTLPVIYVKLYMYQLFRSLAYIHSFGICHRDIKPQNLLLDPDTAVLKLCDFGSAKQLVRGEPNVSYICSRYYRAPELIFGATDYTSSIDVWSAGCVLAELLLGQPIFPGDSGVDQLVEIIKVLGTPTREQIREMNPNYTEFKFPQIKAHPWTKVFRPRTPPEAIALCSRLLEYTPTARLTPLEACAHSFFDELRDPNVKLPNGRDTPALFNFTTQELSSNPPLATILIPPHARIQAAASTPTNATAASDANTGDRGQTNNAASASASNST
T1 sequence (P00519 whole entry, species assumed): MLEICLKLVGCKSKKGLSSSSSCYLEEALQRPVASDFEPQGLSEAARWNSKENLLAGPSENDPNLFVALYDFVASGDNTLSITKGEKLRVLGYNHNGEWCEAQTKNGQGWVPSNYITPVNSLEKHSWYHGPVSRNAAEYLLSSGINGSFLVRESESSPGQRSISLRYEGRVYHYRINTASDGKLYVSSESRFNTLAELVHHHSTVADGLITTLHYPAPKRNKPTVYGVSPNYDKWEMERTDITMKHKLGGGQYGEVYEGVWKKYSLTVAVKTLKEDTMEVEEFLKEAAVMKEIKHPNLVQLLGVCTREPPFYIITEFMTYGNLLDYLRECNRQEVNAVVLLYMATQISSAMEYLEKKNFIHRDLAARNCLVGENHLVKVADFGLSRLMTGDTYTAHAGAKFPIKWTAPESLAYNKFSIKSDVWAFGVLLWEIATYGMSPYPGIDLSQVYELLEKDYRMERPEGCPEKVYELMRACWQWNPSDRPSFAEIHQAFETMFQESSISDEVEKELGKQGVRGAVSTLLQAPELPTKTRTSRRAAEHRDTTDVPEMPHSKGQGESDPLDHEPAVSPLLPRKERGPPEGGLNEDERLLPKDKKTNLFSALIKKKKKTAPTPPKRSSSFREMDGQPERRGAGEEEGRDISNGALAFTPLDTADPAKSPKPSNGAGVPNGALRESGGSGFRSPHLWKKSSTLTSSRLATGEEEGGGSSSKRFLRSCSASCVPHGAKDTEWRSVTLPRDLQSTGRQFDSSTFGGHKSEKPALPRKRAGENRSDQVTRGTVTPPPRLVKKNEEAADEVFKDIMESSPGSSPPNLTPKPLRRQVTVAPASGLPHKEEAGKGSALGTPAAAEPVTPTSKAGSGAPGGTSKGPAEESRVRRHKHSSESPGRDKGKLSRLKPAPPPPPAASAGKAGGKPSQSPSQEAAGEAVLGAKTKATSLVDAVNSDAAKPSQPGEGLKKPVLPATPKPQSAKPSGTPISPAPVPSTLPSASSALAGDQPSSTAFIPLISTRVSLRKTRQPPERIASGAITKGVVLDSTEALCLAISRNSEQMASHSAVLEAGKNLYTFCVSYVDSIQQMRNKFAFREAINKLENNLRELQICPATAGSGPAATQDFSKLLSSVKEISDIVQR
T6 sequence (O96017 whole entry, species assumed): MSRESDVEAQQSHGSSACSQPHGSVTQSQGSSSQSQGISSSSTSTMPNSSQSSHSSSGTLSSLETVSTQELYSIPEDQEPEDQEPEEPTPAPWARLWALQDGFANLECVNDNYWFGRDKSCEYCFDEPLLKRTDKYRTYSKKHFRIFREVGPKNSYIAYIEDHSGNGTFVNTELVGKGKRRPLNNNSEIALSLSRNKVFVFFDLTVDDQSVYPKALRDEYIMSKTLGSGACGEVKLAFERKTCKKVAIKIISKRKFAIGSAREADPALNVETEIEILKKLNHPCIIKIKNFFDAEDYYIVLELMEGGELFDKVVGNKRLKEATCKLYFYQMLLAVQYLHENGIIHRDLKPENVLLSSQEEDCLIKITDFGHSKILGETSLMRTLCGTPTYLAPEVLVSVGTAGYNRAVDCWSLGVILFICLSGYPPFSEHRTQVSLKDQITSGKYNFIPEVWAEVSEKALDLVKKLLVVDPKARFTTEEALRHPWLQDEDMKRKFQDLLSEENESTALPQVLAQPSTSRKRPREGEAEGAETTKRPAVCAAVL

| inhibition at 10 µM (ABL) [%] | inhibition at 10 µM (PRAK) [%] | inhibition at 10 µM (GSK3b) [%] | inhibition at 10 µM (AKT2) [%] | inhibition at 10 µM (LYN) [%] | inhibition at 10 µM (CHK2) [%] | inhibition at 10 µM (SRC) [%] | inhibition at 10 µM (PKA) [%] | inhibition at 10 µM (CK1d) [%] | Structure (SMILES) |
| --- | --- | --- | --- | --- | --- | --- | --- | --- | --- |
| > 90 | 70 to 90 | 70 to 90 | > 90 | > 90 | 50 to 70 | 70 to 90 | > 90 | 70 to 90 | O=c1[nH]c2ncccc2c2cc(Nc3cccc(F)c3)ccc12 [Example 31, 9-(3-Fluoro-phenylamino)-5H-benzo[c][1,8]naphthyridin-6-one] |
| > 90 | 70 to 90 | > 90 | > 90 | > 90 | 70 to 90 | > 90 | > 90 | 70 to 90 | CC(=O)Nc1ccc(Oc2ccc3c(=O)[nH]c4ncccc4c3c2)cc1 [Example 81, N-[4-(6-Oxo-5,6-dihydro-benzo[c][1,8]naphthyridin-9-yloxy)-phenyl]-acetamide] |
| 70 to 90 | > 90 | 70 to 90 | 50 to 70 | 70 to 90 | 50 to 70 | 50 to 70 | 70 to 90 | 50 to 70 | NC(=O)c1ccc(Oc2ccc3c(=O)[nH]c4ncccc4c3c2)cc1 [Example 82] |
